From US7625917B2, “Thiolesters and uses thereof” (priority 1998, dated 2009) come the findings set out here.

Entries after “also recorded” stand apart in the source; their conditions may differ. Where two headings read alike, the source gives them in different places.

The target of data set [1] is NCp7 (Human immunodeficiency virus type 1 group M subtype B, UniProt P03347). The data set is described as follows: NCp7 oligonucleotide binding EMSA. It is filed as biochemical, HIV-1. The settings on record: for concentration at which NCp7-oligonucleotide complex formation was inhibited: EMSA. The protocol: Zinc finger reactivity was measured using a Zn specific fluorochrome, TSQ, N-(6-methoxy-8-quinolyl)-p-toluenesulfonamide, assay or a Trp37 zinc finger fluorescence assay. Fluorescent measurements of the Trp37 residue in the C-terminal finger of recombinant HIV-1 NCp7 protein were performed as described by Rice (1995) Science 270:1194-1197; Rice (1997) Antimicrob. Agents Chemother. 41:419-426. Measurement of Zn ejection from both fingers was measured using the Zn-selective fluorchrome probe TSQ (Molecular Probes, Eugene Oreg.) as described by Rice (1996) J. Med. Chem 39:3606-3616. Measurement of the ability of NCp7 to bind to a DNA oligomer, a 44 mer: GGCGACTGGTGAGTACGCCAAAAATTTTGACTAGCGGAGGCTAG (SEQ ID NO:1), analogous to the HIV-1 RNA packaging site was carried out as described by Huang (1998) J. Med. Chem. 41:1371-1381, see also, Rossio (1998) HIV Pathogenesis and Treatment: Keystone Symposium on Molecular and Cellular Biology, Abstract # 4082. Briefly, 50 nM NCp7 was treated with test compounds for 1 hour at RT in […] buffer containing 10% glycerol and 50 mM Tris-HCl (pH 7.5). Labeled oligomer (0.1 picomole, end labeled [^32P] was added in an equal volume of buffer containing 10% glycerol, 50 mM Tris-HCl (pH 7.5), 400 mM KCl and 40 mM MgCl2. The reaction was continued for 15 min at room temperature, and a total of […] (or ¼ of the total reaction volume) was separated on nondenaturing 4.5% polyacrylamide gels in 0.5× Tris-Borate electrophoresis buffer. NCp7-oligomer complexes were visualized by autoradiography.
Interaction of zinc finger inhibitors with NCp7 can result in loss of protein structure and their ability to specifically bind oligonucleotides representing the HIV-1ψpackaging site (Huang (1998) supra; Tummino (1997) Antimicrob. Agents Chemother. 41:394-400; South (1993) Protein Sci. 2:3-19; Dannull (1994) EMBO J. 13:1525-1533). The ability of NCp7 to specifically associate with these oligonucleotides after treatment of the protein with a thiolester of the invention was tested. For example, compounds 44, 45 or 47 were very effective at inhibiting Ncp7's ability to associate with target oligonucleotide, as determined using electrophoretic mobility shift assays (EMSA) on nondenaturing polyacrylamide gels. At 1 μM, compound 45 inhibited complex formation. Compounds 44 and 47 inhibited complex formation at 100 μM (see Table 9).
For orientation: A gel shift assay detects complexes by their altered migration in electrophoresis.

Data set [2] has as its system CEM-SS cells. Nature of the data set: cells. It is filed as cell-based. The settings on record: for IC50: 50% cytotoxicity, read-out: IC50.
For data set [3], the target named is T1, Virion-associated NCp7 proteins from cell-free HIV-1MN (Human immunodeficiency virus type 1 group M subtype B, UniProt P05888).
T1 construct: attack on the mature NCp7 retroviral zinc fingers in the cell-free virus; endogenous in cells
Nature of the data set: Virion NCp7 cross-linking (non-reducing Western blotting). The protocol:
The interaction of zinc finger inhibitors, such as the thiolesters of the invention, with cell-free virus can result in modification of intravirion NCp7 protein and loss of infectivity. Virion-associated NCp7 proteins from cell-free HIV-1MN were treated with thiolester compounds 44 and 45. They were also evaluated by non-reducing Western blotting using HIV-1 NCp7-specific antibodies. […] Cross-linking by compound 45 was due to formation of intermolecular disulfide bonds because reduction with 2-mercaptoethanol (β-ME) completely reversed the gel retardation.
Virion cross linking was performed as described by Rice (1995) Science 270:1194-1197 and Turpin (1997) Antiviral Chem. Chemother. 8:60-67. Briefly, highly purified HIV-1MN (11.8 μg total protein) was incubated for 2 hour with concentrations of compound. Virions were concentrated and residual compound was removed by centrifugation (18,000×g, 1 h, 4° C.). The viral pellet was solubilized in 0.5 M Tris-HCl, (pH 6.8), 50% glycerol, 8% SDS and 0.4% bromophenol blue and proteins resolved by Western blotting. Western blotting to detect the expression of HIV-1 proteins in U1 cells or virus pellets for virion cross-linking experiments was carried out as described by Turpin (1996) J. Virol. 70:6180-6189. Briefly, 50 μg of total cellular protein for U1 experiments or the. total virion pellet (11.8 μg total viral protein) for NCp7 cross linking studies was resolved on 4 to 20% polyacrylamide gels in SDS with Tris-Glycine (Novex, San Diego Calif.). Samples for reduced gels were boiled for 5 min in the presence of 5% β-ME prior to loading. Resolved proteins were electroblotted on to polyvinylidene difluoride (PVDF) membranes, and HIV-1 specific proteins were detected using a mixture of goat anti-HIV-1 NCp7 and p24 or anti-NCp7 for virion proteins alone (a kind gift of L. E. Henderson, AIDS Vaccine Program NCI-FCRDC, Frederick, Md.). Western blots were developed using standard chemiluminescence methodologies, as produced and described by Dupont-NEN, Wilmington, Del.
Purified concentrated retrovirus and antisera against the purified NC protein of the virus can be used to test the ability of a specific compound to penetrate the virus and react with the NC protein by forming disulfide complexes in the core of the virus. Compound are mixed with the whole retrovirus under reaction conditions appropriate for the compound. The virus is then removed from the reagent by centrifugation and disrupted in, e.g., standard SDS-PAGE sample buffer with (reduced) and without (non-reduced) 2-mercaptoethanol. The viral proteins are then separated by standard SDS-PAGE and the sample examined for the presence or absence of the monomeric zinc finger protein in the non-reduced sample. Depending upon the virus used in the experiment and the conditions of electrophoresis, the zinc finger protein can be visualized by protein staining methods, or by immuno-blot methods. Compounds which react with the zinc finger protein by attacking the zinc finger complexes and forming disulfide cross-linked products inactivate the virus. Thus, compounds of interest (i.e., those which cause cross-linking), including the thiolesters of the invention, reduce the amount of monomeric zinc finger protein detected.
On the technique in general: A western blot detects proteins with antibodies after separation by electrophoresis.

As to `CC(=O)NS(=O)(=O)c1ccc(NC(=O)c2ccccc2SC(=O)CCCCBr)cc1` [Compound 44, N-[2-(5-bromovaleroylthio)benzoyl]sulfacetamide], the “concentration at which NCp7-oligonucleotide complex formation was inhibited” value in data set [1] is 100 µM. Moreover, in data set [2] (Table 5), the IC50 – broadly, the concentration at which inhibition is half-maximal – is on record as 184.5 µM. For the same compound, the “intravirion NCp7 cross-linking (in words)” value in data set [3] is on record as “very poor cross-linking agent”.

Take `CC(=O)NS(=O)(=O)c1ccc(NC(=O)c2ccccc2SC(=O)CCCC[n+]2ccccc2)cc1` [Compound 45, N-[2-(5-pyridinio-valeroylthio)benzoyl]sulfacetamide bromide]: the “concentration at which NCp7-oligonucleotide complex formation was inhibited” value in data set [1] turned out to be 1 µM. Also, the IC50 in data set [2] (Table 5) and in data set [2] (Table 10) was more than 316 µM throughout. Further, the “cellular toxicity (in words)” value in data set [2] (high test dose of 316 μM) was “no toxicity”. Moreover, in data set [3], the “intravirion NCp7 cross-linking (in words)” value is “extensive cross-linking of NCp7; also recorded: strong cross-linker of intravirion NCp7”.

`O=C(CCCC[n+]1ccccc1)Sc1ccccc1C(=O)Nc1ccc(S(=O)(=O)c2ccc([N+](=O)[O-])cc2)cc1` [Compound 47]: in data set [1], the 50% inhibitory concentration (IC50) turned out to be 100 µM and the “concentration at which NCp7-oligonucleotide complex formation was inhibited” value worked out at 100 µM. In data set [3], the “intravirion NCp7 cross-linking (in words)” value is “did not effectively initiate NCp7 cross-linking”.

With `O=C(O)CCCC[n+]1ccccc1.[Br-]` [Compound 53, 5-pyridiniovaleric acid], in data set [2] (Homo sapiens, CEM-SS, Table 6), the IC50 was more than 316 µM. In addition, the “intravirion NCp7 cross-linking (in words)” value in data set [3] is on record as “Neither intravirion cross-linkage of NCp7 nor virucidal activity were detected”.
